Paper PMC12155888, “Design, Synthesis, and Antitumor Biological Evaluation of Galaxamide and Its Analogs” (Molecules, 2025)
“And” between values parts separate entries of the source, which are not always exact repeats. Equal entries are not always repeated.

Test: not given
Settings: amide bond; 15-membered ring; PyBOP/DMAP; MeCN; 4.3 mM
Work on “Cyclo(Me-D-Leu-D-Leu-D-Leu-Me-D-Leu-D-Leu)” yielded a ring closure, isolated yield of 48%. “Cyclo(Me-D-Leu-D-Leu-L-Leu-Me-D-Leu-D-Leu)” gave a ring closure, isolated yield of 50%. “Cyclo(Me-D-Leu-L-Leu-D-Leu-Me-D-Leu-L-Leu)” gave a ring closure, isolated yield of 45%. For “Cyclo(Me-D-Leu-L-Leu-L-Leu-Me-D-Leu-L-Leu)”, the ring closure, isolated yield was 48%. Work on “Cyclo(Me-L-Leu-D-Leu-D-Leu-Me-L-Leu-D-Leu)” yielded a ring closure, isolated yield of 54%. Molecule “Cyclo(Me-L-Leu-D-Leu-L-Leu-Me-L-Leu-D-Leu)” has a ring closure, isolated yield of 45%. In the case of “Cyclo(Me-L-Leu-L-Leu-2-Me-D-Phe-Me-L-Leu-L-Leu)”, the ring closure, isolated yield was 53%. For “Cyclo(Me-L-Leu-L-Leu-3-Flu-D-Phe-Me-L-Leu-L-Leu)”, the ring closure, isolated yield was 53%. For “Cyclo(Me-L-Leu-L-Leu-3-Me-D-Phe-Me-L-Leu-L-Leu)”, the ring closure, isolated yield was 53% and 50%. In the case of “Cyclo(Me-L-Leu-L-Leu-4-Bro-D-Phe-Me-L-Leu-L-Leu)”, the ring closure, isolated yield was 55%. Molecule “Cyclo(Me-L-Leu-L-Leu-4-Chl-D-Phe-Me-L-Leu-L-Leu)” has a ring closure, isolated yield of 55%. Work on “Cyclo(Me-L-Leu-L-Leu-D-Ala-Me-L-Leu-L-Leu)” yielded a ring closure, isolated yield of 49%. Molecule “Cyclo(Me-L-Leu-L-Leu-D-Leu-Me-L-Leu-L-Leu)” has a ring closure, isolated yield of 45%. For “Cyclo(Me-L-Leu-L-Leu-D-Met-Me-L-Leu-L-Leu)”, the ring closure, isolated yield was 52%. With “Cyclo(Me-L-Leu-L-Leu-D-Phe-Me-L-Leu-L-Leu)” the ring closure, isolated yield was 51%. “Cyclo(Me-L-Leu-L-Leu-D-Pro-Me-L-Leu-L-Leu)” showed a ring closure, isolated yield of 51%. Molecule “Cyclo(Me-L-Leu-L-Leu-D-Val-Me-L-Leu-L-Leu)” has a ring closure, isolated yield of 50%. For “Cyclo(Me-L-Leu-L-Leu-D-cyclohexyl-Gly-Me-L-Leu-L-Leu)”, the ring closure, isolated yield was 51%. For “Cyclo(Me-L-Leu-L-Leu-D-phenyl-Gly-Me-L-Leu-L-Leu)”, the ring closure, isolated yield was 51%. In the case of “Cyclo(Me-L-Leu-L-Leu-Gly-Me-L-Leu-L-Leu)”, the ring closure, isolated yield was 51%. In the case of “Cyclo(Me-L-Leu-L-Leu-Methylester-D-Asp-Me-L-Leu-L-Leu)”, the ring closure, isolated yield was 52%. Molecule “Cyclo(Me-L-Leu-L-Leu-O-Me-D-Ser-Me-L-Leu-L-Leu)” has a ring closure, isolated yield of 52%. Molecule “Cyclo(Me-L-Leu-L-Leu-O-Tyr-Me-L-Leu-L-Leu)” has a ring closure, isolated yield of 52%.

Test: head-to-tail macrolactamisation of free linear pentapeptide 10 (H-NMeAA...Leu-OH), PyBOP (2 equiv), DMAP (3 equiv); Route E: peptide solution (4.3 mM in MeCN) added dropwise over 10 h to PyBOP/DMAP in MeCN, further 3 h stirring
Settings: the molecule shown is the open-chain precursor; 15-membered ring; CH3CN; 1.0 mM; 20.0 °C; 13.0 h
Molecule CN[C@H](CC(C)C)C(=O)N[C@H](CC(C)C)C(=O)N[C@H](CC(C)C)C(=O)N(C)[C@H](CC(C)C)C(=O)N[C@H](CC(C)C)C(=O)O [H-D-N(Me)Leu-D-Leu-D-Leu-D-N(Me)Leu-D-Leu-OH] has a ring closure, isolated yield of 48%. With CN[C@H](CC(C)C)C(=O)N[C@H](CC(C)C)C(=O)N[C@@H](CC(C)C)C(=O)N(C)[C@H](CC(C)C)C(=O)N[C@H](CC(C)C)C(=O)O [H-D-N(Me)Leu-D-Leu-Leu-D-N(Me)Leu-D-Leu-OH] the ring closure, isolated yield was 50%. CN[C@H](CC(C)C)C(=O)N[C@@H](CC(C)C)C(=O)N[C@H](CC(C)C)C(=O)N(C)[C@H](CC(C)C)C(=O)N[C@@H](CC(C)C)C(=O)O [H-D-N(Me)Leu-Leu-D-Leu-D-N(Me)Leu-Leu-OH] gave a ring closure, isolated yield of 45%. With CN[C@H](CC(C)C)C(=O)N[C@@H](CC(C)C)C(=O)N[C@@H](CC(C)C)C(=O)N(C)[C@H](CC(C)C)C(=O)N[C@@H](CC(C)C)C(=O)O [H-D-N(Me)Leu-Leu-Leu-D-N(Me)Leu-Leu-OH] the ring closure, isolated yield was 48%. For CN[C@@H](CC(C)C)C(=O)N[C@H](CC(C)C)C(=O)N[C@H](CC(C)C)C(=O)N(C)[C@@H](CC(C)C)C(=O)N[C@H](CC(C)C)C(=O)O [H-N(Me)Leu-D-Leu-D-Leu-N(Me)Leu-D-Leu-OH], the ring closure, isolated yield was 54%. In the case of CN[C@@H](CC(C)C)C(=O)N[C@H](CC(C)C)C(=O)N[C@@H](CC(C)C)C(=O)N(C)[C@@H](CC(C)C)C(=O)N[C@H](CC(C)C)C(=O)O [H-N(Me)Leu-D-Leu-Leu-N(Me)Leu-D-Leu-OH], the ring closure, isolated yield was 45%. With CN[C@@H](CC(C)C)C(=O)N[C@@H](CC(C)C)C(=O)N[C@H](C)C(=O)N(C)[C@@H](CC(C)C)C(=O)N[C@@H](CC(C)C)C(=O)O [H-N(Me)Leu-Leu-D-Ala-N(Me)Leu-Leu-OH] the ring closure, isolated yield was 49%. Work on CN[C@@H](CC(C)C)C(=O)N[C@@H](CC(C)C)C(=O)N[C@H](CC(=O)OC)C(=O)N(C)[C@@H](CC(C)C)C(=O)N[C@@H](CC(C)C)C(=O)O [H-N(Me)Leu-Leu-D-Asp(OMe)-N(Me)Leu-Leu-OH] yielded a ring closure, isolated yield of 52%. CN[C@@H](CC(C)C)C(=O)N[C@@H](CC(C)C)C(=O)N[C@@H](C(=O)N(C)[C@@H](CC(C)C)C(=O)N[C@@H](CC(C)C)C(=O)O)C1CCCCC1 [H-N(Me)Leu-Leu-D-Chg-N(Me)Leu-Leu-OH] gave a ring closure, isolated yield of 51%. CN[C@@H](CC(C)C)C(=O)N[C@@H](CC(C)C)C(=O)N[C@H](CC(C)C)C(=O)N(C)[C@@H](CC(C)C)C(=O)N[C@@H](CC(C)C)C(=O)O [H-N(Me)Leu-Leu-D-Leu-N(Me)Leu-Leu-OH] showed a ring closure, isolated yield of 45%. With CN[C@@H](CC(C)C)C(=O)N[C@@H](CC(C)C)C(=O)N[C@H](CCSC)C(=O)N(C)[C@@H](CC(C)C)C(=O)N[C@@H](CC(C)C)C(=O)O [H-N(Me)Leu-Leu-D-Met-N(Me)Leu-Leu-OH] the ring closure, isolated yield was 52%. Work on CN[C@@H](CC(C)C)C(=O)N[C@@H](CC(C)C)C(=O)N[C@H](Cc1ccccc1C)C(=O)N(C)[C@@H](CC(C)C)C(=O)N[C@@H](CC(C)C)C(=O)O [H-N(Me)Leu-Leu-D-Phe(2-Me)-N(Me)Leu-Leu-OH] yielded a ring closure, isolated yield of 53%. CN[C@@H](CC(C)C)C(=O)N[C@@H](CC(C)C)C(=O)N[C@H](Cc1cccc(F)c1)C(=O)N(C)[C@@H](CC(C)C)C(=O)N[C@@H](CC(C)C)C(=O)O [H-N(Me)Leu-Leu-D-Phe(3-F)-N(Me)Leu-Leu-OH] gave a ring closure, isolated yield of 53%. CN[C@@H](CC(C)C)C(=O)N[C@@H](CC(C)C)C(=O)N[C@H](Cc1cccc(C)c1)C(=O)N(C)[C@@H](CC(C)C)C(=O)N[C@@H](CC(C)C)C(=O)O [H-N(Me)Leu-Leu-D-Phe(3-Me)-N(Me)Leu-Leu-OH] gave a ring closure, isolated yield of 53%. Molecule CN[C@@H](CC(C)C)C(=O)N[C@@H](CC(C)C)C(=O)N[C@H](Cc1ccc(Br)cc1)C(=O)N(C)[C@@H](CC(C)C)C(=O)N[C@@H](CC(C)C)C(=O)O [H-N(Me)Leu-Leu-D-Phe(4-Br)-N(Me)Leu-Leu-OH] has a ring closure, isolated yield of 55%. CN[C@@H](CC(C)C)C(=O)N[C@@H](CC(C)C)C(=O)N[C@H](Cc1ccc(Cl)cc1)C(=O)N(C)[C@@H](CC(C)C)C(=O)N[C@@H](CC(C)C)C(=O)O [H-N(Me)Leu-Leu-D-Phe(4-Cl)-N(Me)Leu-Leu-OH] showed a ring closure, isolated yield of 55%. In the case of CN[C@@H](CC(C)C)C(=O)N[C@@H](CC(C)C)C(=O)N[C@H](Cc1ccc(C)cc1)C(=O)N(C)[C@@H](CC(C)C)C(=O)N[C@@H](CC(C)C)C(=O)O [H-N(Me)Leu-Leu-D-Phe(4-Me)-N(Me)Leu-Leu-OH], the ring closure, isolated yield was 50%. CN[C@@H](CC(C)C)C(=O)N[C@@H](CC(C)C)C(=O)N[C@H](Cc1ccccc1)C(=O)N(C)[C@@H](CC(C)C)C(=O)N[C@@H](CC(C)C)C(=O)O [H-N(Me)Leu-Leu-D-Phe-N(Me)Leu-Leu-OH] showed a ring closure, isolated yield of 51%. Molecule CN[C@@H](CC(C)C)C(=O)N[C@@H](CC(C)C)C(=O)N[C@@H](C(=O)N(C)[C@@H](CC(C)C)C(=O)N[C@@H](CC(C)C)C(=O)O)c1ccccc1 [H-N(Me)Leu-Leu-D-Phg-N(Me)Leu-Leu-OH] has a ring closure, isolated yield of 51%. In the case of CN[C@@H](CC(C)C)C(=O)N[C@@H](CC(C)C)C(=O)N1CCC[C@@H]1C(=O)N(C)[C@@H](CC(C)C)C(=O)N[C@@H](CC(C)C)C(=O)O [H-N(Me)Leu-Leu-D-Pro-N(Me)Leu-Leu-OH], the ring closure, isolated yield was 51%. CN[C@@H](CC(C)C)C(=O)N[C@@H](CC(C)C)C(=O)N[C@H](COC)C(=O)N(C)[C@@H](CC(C)C)C(=O)N[C@@H](CC(C)C)C(=O)O [H-N(Me)Leu-Leu-D-Ser(OMe)-N(Me)Leu-Leu-OH] showed a ring closure, isolated yield of 52%. CN[C@@H](CC(C)C)C(=O)N[C@@H](CC(C)C)C(=O)N[C@H](Cc1ccc(OC)cc1)C(=O)N(C)[C@@H](CC(C)C)C(=O)N[C@@H](CC(C)C)C(=O)O [H-N(Me)Leu-Leu-D-Tyr(OMe)-N(Me)Leu-Leu-OH] gave a ring closure, isolated yield of 52%. CN[C@@H](CC(C)C)C(=O)N[C@@H](CC(C)C)C(=O)N[C@@H](C(=O)N(C)[C@@H](CC(C)C)C(=O)N[C@@H](CC(C)C)C(=O)O)C(C)C [H-N(Me)Leu-Leu-D-Val-N(Me)Leu-Leu-OH] gave a ring closure, isolated yield of 50%. In the case of CN[C@@H](CC(C)C)C(=O)N[C@@H](CC(C)C)C(=O)NCC(=O)N(C)[C@@H](CC(C)C)C(=O)N[C@@H](CC(C)C)C(=O)O [H-N(Me)Leu-Leu-Gly-N(Me)Leu-Leu-OH], the ring closure, isolated yield was 51%.
